Results: US7892755B2, “Screening method” (Takeda Pharmaceutical Company Limited, priority 2004, dated 2011)

How the values were obtained:
GPR35-GFP fusion protein = test: Internalization of GPR35-GFP fusion protein expressed on CHO cells (Cellomics ArrayScan, MemCyto Above Threshold); type: cell-based, human; conditions: CHO cells stably expressing GPR35-GFP; 3 μM, 10 μM and 30 μM
Description: The CHO cell line, in which a protein wherein GFP was fused to the C-terminus of human GPR35 was stably expressed, was established using an expression plasmid for animal cells by publicly known methods. In assaying internalization of the protein, the cells at growth phase were plated at the concentration of 40000 cells/well on a 96-well plate (Packard, View-Plate™-96, Black), and cultured overnight at 37° C. under 5% CO2. First, the cells in the well were washed with assay buffer (HBSS (Gibco/BRL) supplemented with 0.1% bovine serum albumin (BSA)). Then, 100 μl each of the assay buffers containing 3 μM, 10 μM and 30 μM DNQX and NBQX was added to each well, followed by incubation at 37° C. under conditions of 5% CO2. Subsequently, 100 μl/well of a cell fixation solution (4% paraformaldehyde-containing PBS (free of Ca/Mg)) was added to the well, which was allowed to stand at room temperature for 30 minutes. The cell fixation solution was removed. […] The intracellular localization of GPR35-GFP fusion protein was assessed using MemCyto Above Threshold (cell ratio (unit %) over a specific parameter (MemCyto Intensity Ratio) representing the ratio of membrane/cytoplasmic localization of the protein to all cells in the well), which is one of the parameters of the GPCR Signaling Assay Protocol attached to the above system.

GPR35 = GPR35 (Homo sapiens, UniProt Q9HC97, S294R); test: MAPK phosphorylation (western blot, phospho-p44/42 MAP kinase) in human GPR35-expressed CHO cells; type: cell-based; set-up: The resulting fragment (ca. 1 kb) was introduced into vector pAKKO-111; expressed in transfected cells; conditions: stimulation with 1-5 μM, 5 minutes
Description: The human GPR35-expressed CHO cells prepared in REFERENCE EXAMPLE 1 were incubated for 48 hours in a 12-well plate at 5×10^4 cells/well. MEMα (containing no nucleic acid) supplemented with 10% dialyzed FBS was used as a medium. After the medium was removed by suction, the cells were washed with 1 ml (×2) of serum-free medium and 500 μl of the serum-free medium was added thereto, followed by incubation at 37° C. for 16 hours. DNQX or NBQX was added to the cells at its optimum concentration, followed by incubation at 37° C. for 5 minutes. Immediately after the medium was removed by suction, 50 μl of Blue Loading Buffer (BioLabs) was added, the cells were lysed and taken up by pipetting. The cell lysate was destructed using a sonicator (Sono Cleaner; KAIJO DENKI) and then heat-treated at 95° C. for 5 minutes. Centrifugation (15,000 rpm, 4° C., 5 minutes) was made and the supernatant was used as a final sample.
After 10 μl of the sample was electrophoresed on 10% SDS-PAGE, the sample was transferred to a PVDF membrane by western blotting. The membrane was immersed in Block Ace (manufactured by Dainippon Pharmaceutical Co., Ltd.) and then shaken for an hour at room temperature. […] The membrane was applied to a fluorescence detector (LAS-1000; FUJI FILM) in accordance with the protocol of ECLplus Western Blotting System (Amersham Biosciences). […]

Sequence of GPR35 (Q9HC97 whole entry S294R, the tested form may be a part): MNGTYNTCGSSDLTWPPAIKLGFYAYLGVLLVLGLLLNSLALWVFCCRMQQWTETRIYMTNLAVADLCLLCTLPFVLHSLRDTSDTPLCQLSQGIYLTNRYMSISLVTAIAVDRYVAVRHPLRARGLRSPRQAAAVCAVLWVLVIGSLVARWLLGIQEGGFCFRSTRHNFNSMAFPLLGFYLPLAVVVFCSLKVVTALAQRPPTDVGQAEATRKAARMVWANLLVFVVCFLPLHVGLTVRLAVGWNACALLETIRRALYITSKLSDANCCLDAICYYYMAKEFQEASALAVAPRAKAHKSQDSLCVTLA

| Compound | activity of inducing internalization of the GPR35-GFP protein (decreased MemCyto Above Threshold value) (GPR35-GFP fusion protein) | level of phosphorylated MAP-kinase (GPR35) |
| --- | --- | --- |
| NS(=O)(=O)c1cccc2c3c(cc([N+](=O)[O-])c12)=NC(=O)C(=O)N=3 [NBQX, 6-nitro-7-sulfamoylbenzo[f]quinoxaline-2,3-dione] | dose-dependent internalization | enhanced |
| O=C1N=c2cc([N+](=O)[O-])c([N+](=O)[O-])cc2=NC1=O [DNQX, 6,7-dinitroquinoxaline-2,3-dione] | dose-dependent internalization | enhanced |
